The record followed here is PubChem BioAssay (NCI).

Among the test systems are UACC-62 melanoma; HCT-116 colon; HOP-92 NSCLC; SF-295 CNS; UACC-257 melanoma; NCI-H226 lung; NCI-H460 lung; NCI-H23 lung; SF-539 CNS.
Common to all, as to test: NCI anticancer screen, dose series, 48 h

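96-well plates; 48 h exposure; 5 concentrations. Endpoints by linear interpolation between flanking doses. Not reached: highest tested concentration assigned. At the GI50, growth is halved. Definition used: TGI = concentration required for complete inhibition of growth.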 Bounds are passed on as bounds.

As to `COC(=O)C(N)CCCC(N)C(=O)NC(C)C(=O)NC(CCC(=O)NCCCNc1ccc([N+](=O)[O-])c2[nH]c3ccccc3c(=O)c12)C(N)=O` (configuration not stated), the TGI with UACC-62 melanoma came out at 10.8 µM; with HCT-116 colon, 12.4 µM; in the experiment on HOP-92 NSCLC, 26.1 µM; in the experiment with SF-295 CNS it was 20.9 µM; in the experiment with UACC-257 melanoma, 23.2 µM; with NCI-H226 lung, 27.9 µM. Moreover, the TGI with NCI-H460 lung was 17.2 µM; in the experiment with NCI-H23 lung, 17.9 µM.
Take `CC(C)(C)c1cc(C2NC(=O)NC2=O)cc(C(C)(C)C)c1O` (configuration not stated): the TGI in the experiment with UACC-62 melanoma was above 100 µM; in the experiment with HCT-116 colon, 84.5 µM; in the experiment on HOP-92 NSCLC, above 100 µM; in the experiment with SF-295 CNS, above 100 µM; in the experiment on SF-539 CNS, above 100 µM; in the experiment with NCI-H226 lung it was above 100 µM. The TGI with NCI-H23 lung was above 100 µM.
Turning to `Cc1cnc2[nH]c(-c3cccc(Cl)c3)cc(=O)c2c1`, the TGI in the experiment on UACC-62 melanoma is 63.5 µM; in the experiment on HOP-92 NSCLC it was above 100 µM; in the experiment on SF-295 CNS it was 1.64 µM; with SF-539 CNS, 0.0658 µM; in the experiment on UACC-257 melanoma it was above 100 µM; in the experiment with NCI-H226 lung, 87.3 µM. Also, the TGI in the experiment on NCI-H460 lung was above 58.2 µM; in the experiment on NCI-H23 lung, above 100 µM.
As for `Clc1ccc(-c2nn3c(C45CC6CC(CC(C6)C4)C5)nnc3s2)cc1`, the TGI in the experiment with UACC-62 melanoma, in the experiment with HCT-116 colon, in the experiment with HOP-92 NSCLC, in the experiment with SF-295 CNS, with SF-539 CNS and in the experiment on NCI-H226 lung was above 100 µM in each case. Moreover, the TGI with NCI-H460 lung and with NCI-H23 lung was above 100 µM in each case.
With `C=C(COC(=O)C(C)C)[C@H]1Oc2ccc(C(C)=O)cc2[C@@H]1OC(=O)C(C)C`, the TGI in the experiment with UACC-62 melanoma, in the experiment on HCT-116 colon, in the experiment on SF-295 CNS, with SF-539 CNS, in the experiment on UACC-257 melanoma and in the experiment on NCI-H226 lung was above 100 µM in each case. The TGI in the experiment with NCI-H460 lung and in the experiment with NCI-H23 lung was above 100 µM in each case.
Consider `O=[N+]([O-])c1cc(Cl)ccc1S(=O)(=O)c1cc(Cl)cc2c1NCCC2`, for which the TGI in the experiment on UACC-62 melanoma was 85.8 µM; in the experiment with HCT-116 colon, above 100 µM; in the experiment on HOP-92 NSCLC, above 100 µM; in the experiment with SF-295 CNS, above 100 µM; with SF-539 CNS, above 100 µM; in the experiment on UACC-257 melanoma, 64.8 µM. Further, the TGI in the experiment on NCI-H226 lung and in the experiment with NCI-H460 lung was above 100 µM throughout.
With `CCCCNCC(O)c1cc(-c2ccc(C(F)(F)F)cc2)nc(-c2ccc(C(F)(F)F)cc2)c1` (configuration not stated), the values for the GI50 with UACC-62 melanoma and in the experiment on UACC-257 melanoma were 1.89 µM and 1.83 µM, respectively. Also, the TGI came to 3.67 µM with UACC-62 melanoma and 3.57 µM in the experiment with UACC-257 melanoma.
For the compound `CC(=O)C(C(=O)C(C)(C)C)C(=O)C(C)(C)C`, the TGI with UACC-62 melanoma, in the experiment with HCT-116 colon, with HOP-92 NSCLC, with SF-295 CNS, in the experiment on SF-539 CNS and in the experiment on UACC-257 melanoma was above 100 µM throughout. This compound also yielded a TGI with NCI-H460 lung above 100 µM.
With `Cc1ccc(C2(c3ccc(C)c(O)c3C)CCN(C)CC2)c(C)c1O`, the TGI is above 100 µM with UACC-62 melanoma; above 100 µM in the experiment with HCT-116 colon; above 100 µM with HOP-92 NSCLC; above 100 µM in the experiment with SF-295 CNS; 35.3 µM in the experiment with UACC-257 melanoma; above 100 µM in the experiment on NCI-H226 lung. Moreover, the TGI with NCI-H460 lung and in the experiment on NCI-H23 lung was above 100 µM throughout.
Take `C1=C[C@]2(CCC13OCCO3)COc1ccccc12`: the TGI with UACC-62 melanoma is above 100 µM; in the experiment on HCT-116 colon it was above 100 µM; with HOP-92 NSCLC it was above 100 µM; with SF-295 CNS it was above 100 µM; in the experiment on UACC-257 melanoma, above 100 µM; in the experiment with NCI-H226 lung it was 81.2 µM. Besides, the results for the TGI with NCI-H460 lung and with NCI-H23 lung were above 100 µM and 99.5 µM, respectively.
Turning to `CC1CN=C(N(C)C(=O)Nc2ccc(Cl)c(Cl)c2)S1` (configuration not stated), the TGI with HCT-116 colon was above 100 µM; with HOP-92 NSCLC, 22.9 µM; in the experiment on SF-295 CNS, above 100 µM; in the experiment with SF-539 CNS, 52.6 µM; in the experiment with UACC-257 melanoma it was above 100 µM; with NCI-H460 lung, above 100 µM. In the experiment with NCI-H23 lung, this compound came in with a TGI above 100 µM.
`COc1cc(-c2coc3c(OC)c(OC4OC(COC5OC(C)C(O)C(O)C5O)C(O)C(O)C4O)c(OC)c(O)c3c2=O)cc(C)c1O` (configuration not stated): the TGI was found to be 34.7 µM in the experiment with UACC-62 melanoma; 65 µM with HOP-92 NSCLC; 38 µM in the experiment with SF-295 CNS; 39 µM in the experiment on SF-539 CNS; 68.2 µM with UACC-257 melanoma; 82.6 µM in the experiment on NCI-H460 lung. The TGI with NCI-H23 lung came to 32.4 µM.
Turning to `S=C1CSc2c(cnc3ccccc23)N1`, the TGI in the experiment with UACC-62 melanoma, in the experiment with HCT-116 colon, in the experiment on SF-295 CNS, in the experiment on UACC-257 melanoma, with NCI-H226 lung and in the experiment on NCI-H460 lung was above 100 µM each time. In addition, in the experiment with NCI-H23 lung, the TGI is above 100 µM.
`Cc1csc2n(C)c(=O)c3ccccc3[n+]12`: the TGI in the experiment on UACC-62 melanoma, in the experiment on HCT-116 colon, in the experiment on SF-295 CNS, in the experiment with SF-539 CNS, in the experiment on UACC-257 melanoma and in the experiment with NCI-H226 lung was above 100 µM each time. For the same compound, the TGI with NCI-H460 lung and in the experiment with NCI-H23 lung was above 100 µM each time.
As to `c1csc(-c2nnc(C34CC5CC(CC(C5)C3)C4)o2)c1`, the TGI with UACC-62 melanoma was above 100 µM; in the experiment with HCT-116 colon, above 100 µM; in the experiment on HOP-92 NSCLC it was 54.8 µM; with SF-295 CNS, above 100 µM; with SF-539 CNS it was 40.1 µM; in the experiment on NCI-H226 lung, above 100 µM. The TGI in the experiment with NCI-H460 lung and in the experiment with NCI-H23 lung was above 100 µM each time.
As to `O=c1c(S(=O)(=O)Oc2ccccc2)coc2cc(F)ccc12`, the TGI in the experiment with UACC-62 melanoma was above 100 µM; in the experiment with HCT-116 colon, above 100 µM; with SF-295 CNS, above 100 µM; with SF-539 CNS, above 100 µM; in the experiment with UACC-257 melanoma, above 100 µM; in the experiment on NCI-H226 lung, 73.6 µM. The TGI in the experiment on NCI-H460 lung and in the experiment on NCI-H23 lung was above 100 µM in each case.
With `c1ccc2nn(C3CCCCO3)nc2c1` (configuration not stated), the TGI with UACC-62 melanoma, with HCT-116 colon, in the experiment with SF-295 CNS, in the experiment on SF-539 CNS, in the experiment with UACC-257 melanoma and with NCI-H226 lung was above 100 µM throughout. Besides, the TGI with NCI-H460 lung and in the experiment on NCI-H23 lung was above 100 µM throughout.
